# Source: patent publication US20240197708A1, “TREATMENT OF PRODROMAL HUNTINGTON DISEASE” (Prilenia Neurotherapeutics Ltd., priority 2021, published 2024)
# What was measured:
# prodromal HD subjects = settings: 45 mg bid
# Procedure: The efficacy of pridopidine for treating prodromal HD is evaluated in a randomized, double-blind, placebo-controlled trial.
# early-stage HD patients = settings: disclosed in U.S. Pat. Nos. 10,322,119 and 11,207,310; cited from earlier work
# [1] = CSF and/or plasma, 52 weeks, vs placebo
smiles,measurement,setting,value
"CCCN1CCC(c2cccc(S(C)(=O)=O)c2)CC1 [Pridopidine, 4-[3-(methylsulfonyl)phenyl]-1-propyl-piperidine]",DMN and functional connectivity,"prodromal HD subjects; 52 weeks, vs placebo",maintenance of or less worsening
same,PBA-s apathy score,"prodromal HD subjects; 52 weeks, vs placebo",improvement or less worsening compared to placebo
same,PBA-s total score,"prodromal HD subjects; 52 weeks, vs placebo",improvement or less worsening compared to placebo
same,cognitive assessments by the HD-CAB battery of tests,"prodromal HD subjects; 52 weeks, vs placebo",improves or maintains or show less worsening compared to placebo
same,cognitive assessments by the SDMT,"prodromal HD subjects; 52 weeks, vs placebo","improves, maintains or shows less decline"
same,cortical thickness,"prodromal HD subjects; 52 weeks, vs placebo",no decrease or less decrease compared to placebo
same,motor measure Q-Motor finger tapping,"prodromal HD subjects; 52 weeks, vs placebo","maintenance, improvement or less decline compared to placebo"
same,motor measure TMS,"prodromal HD subjects; 52 weeks, vs placebo","maintenance, improvement or less decline compared to placebo"
same,total brain volume,"prodromal HD subjects; 52 weeks, vs placebo",no decrease or less decrease compared to placebo
same,ventricular volume,"prodromal HD subjects; 52 weeks, vs placebo",decrease or maintenance of ventricular volume or a smaller increase in ventricular volume compared to placebo
same,volume of the striatal structures caudate and putamen,"prodromal HD subjects; 52 weeks, vs placebo",no decrease or less decrease compared to placebo
same,level of fluid biomarker NfL,prodromal HD subjects; [1],reduction or maintenance
same,level of fluid biomarker phospho-tau,prodromal HD subjects; [1],reduction or maintenance
same,level of fluid biomarker proenkephalin,prodromal HD subjects; [1],reduction or maintenance
same,progression to manifest HD,"prodromal HD subjects; over the course of the trial (52 weeks), vs placebo group",less participants in the pridopidine group progressed to manifest HD compared to the placebo group
same,functional capacity,early-stage HD patients,"maintains, improves or lessens the decline of functional capacity"
